Literature values, collected in patent publication US20220168203A1, “METHOD FOR PREPARING HAIR TREATMENTS AGENTS WITH ORGANIC C1-C6 ALKOXY-SILANES” (Henkel AG & Co. KGaA, priority 2019, published 2022).

Details: 25° C.

solubility in water | solubility in water (in words) | Molecule
above 40 g/L |  | O=[N+]([O-])c1cc([N+](=O)[O-])c2ccc(S(=O)(=O)O)cc2c1O [Acid Yellow 9, 8-hydroxy-5,7-dinitro-2-naphthalenesulfonic acid]
 | highly soluble | O=C(O)C1=NN(c2ccc(S(=O)(=O)O)cc2)C(=O)C1N=Nc1ccc(S(=O)(=O)O)cc1 (stereo not shown) [Acid Yellow 23, 4,5-dihydro-5-oxo-1-(4-sulfophenyl)-4-((4-sulfophenyl)azo)-1H-pyrazole-3-carboxylic acid]
20 mg/mL |  | Acid Yellow 3

Molecule | solubility in water | solubility in water (in words)
O=S(=O)(O)c1ccc(N=Nc2c(O)ccc3ccccc23)cc1 [Acid Orange 7, 4-[(2-hydroxy-1-naphthyl)azo]benzene sulphonate] | more than 7 g/L | 
